# Where two headings read alike, the source gives them in different places.
# Experiments:
# [1] = system: Pseudomonas aeruginosa MB9798 vs MB9799
# In short: (§1)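 Microbroth MIC tests in PAO1-background strains with fixed imipenem and/or ceftazidime, usually at the CLSI breakpoint, plus fixed class A/C β-lactamase inhibitor against AmpC. MBL inhibitor titrated; concentration restoring susceptibility recorded and compared as fold difference between efflux+ MB9798 and efflux− MB9799.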
# [2] = system: Klebsiella pneumoniae expressing VIM-1 (IHMA599644); type: cell-based; conditions: for Klebsiella pneumoniae expressing VIM-1 (IHMA599644) MITC95: with imipenem 1 μg/ml; for Klebsiella pneumoniae MITC95: VIM-1 strain IHMA599644, with imipenem 1 μg/ml
# In short: (§2)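 Imipenem 1 μg/ml + inhibitor; MBL-expressing clinical strains in 1.1×CAMHB, inoculum from saline suspension diluted 1:100; 35° C, 22–24 h; absorbance read-out.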
# [3] = system: Serratia marcescens expressing IMP-1 (CL5741); type: cell-based; conditions: for Serratia marcescens expressing IMP-1 (CL5741) MITC95: with imipenem 1 μg/ml; for Serratia marcescens MITC95: IMP-1 strain CL5741, with imipenem 1 μg/ml
# In short: as §2
# [4] = system: Escherichia coli expressing NDM-1 (CLB30005, CLB30016); type: cell-based; conditions: with imipenem 1 μg/ml; for Escherichia coli MITC95: NDM-1 strain
# In short: as §2
# [5] = system: Pseudomonas aeruginosa efflux− (MB9799), IMP-1; type: cell-based; conditions: C, D serine β-lactamase inhibitor closely related to relebactam; for P. aeruginosa expressing IMP-1, efflux − (MB9799) MITC95: concentration restoring susceptibility to imipenem at 2 μg/mL in the presence of a class A
# In short: as §1
# [6] = system: Pseudomonas aeruginosa efflux+ (MB9798), IMP-1; type: cell-based; parameters: Concentration of metallo-β-lactamase inhibitor which restores susceptibility of efflux + (MB9798) strain to imipenem: unit not given here; conditions: C, D serine β-lactamase inhibitor closely related to relebactam; for P. aeruginosa expressing IMP-1, efflux + (MB9798) MITC95: concentration restoring susceptibility to imipenem at 2 μg/mL in the presence of a class A
# In short: as §1
# VIM-1 = VIM-1 (Pseudomonas aeruginosa (strain ATCC 15692 / DSM 22644 / CIP 104116 / JCM 14847 / LMG 12228 / 1C / PRS 101 / PAO1), UniProt A0A0F7KYQ8); assay: biochemical; conditions: CCF2-FA substrate, 30 pM enzyme, 2 hours at 25° C.
# In short: (§3)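 Class B activity is measured in the presence of compound by fluorescence with CCF2-FA after a 2-hour incubation at 25° C. IC50 is taken from a 4-parameter fit of semi-logarithmic dose-response data.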
# NDM-1 = NDM-1 (Klebsiella pneumoniae, UniProt C7C422); assay: biochemical; type: biochemical; conditions: CCF2-FA substrate, 1 pM enzyme, 2 hours at 25° C.
# In short: as §3
# IMP-1 = IMP-1 (Serratia marcescens, UniProt P52699); assay: biochemical; type: biochemical; conditions: CCF2-FA substrate, 2 pM enzyme, 2 hours at 25° C.
# In short: as §3
# [7] = ratio MITC95 PA_9798/MITC95 PA_9799
# [8] = 95% inhibition of bacterial growth
# [9] = fluorescence assay, read-out: NDM-1 IC50
# [10] = fluorescence assay, read-out: IMP-1 IC50
# [11] = fluorescence assay, read-out: VIM-1 IC50
# Sequence of IMP-1 (P52699 whole entry, looked up, species assumed): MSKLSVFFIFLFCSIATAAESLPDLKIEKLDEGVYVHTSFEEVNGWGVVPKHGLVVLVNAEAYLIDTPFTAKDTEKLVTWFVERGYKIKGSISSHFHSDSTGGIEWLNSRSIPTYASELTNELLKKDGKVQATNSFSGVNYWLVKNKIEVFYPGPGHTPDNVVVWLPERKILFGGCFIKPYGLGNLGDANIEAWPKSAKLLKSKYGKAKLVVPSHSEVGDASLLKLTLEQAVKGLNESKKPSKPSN
# Sequence of NDM-1 (C7C422 whole entry, looked up, species assumed): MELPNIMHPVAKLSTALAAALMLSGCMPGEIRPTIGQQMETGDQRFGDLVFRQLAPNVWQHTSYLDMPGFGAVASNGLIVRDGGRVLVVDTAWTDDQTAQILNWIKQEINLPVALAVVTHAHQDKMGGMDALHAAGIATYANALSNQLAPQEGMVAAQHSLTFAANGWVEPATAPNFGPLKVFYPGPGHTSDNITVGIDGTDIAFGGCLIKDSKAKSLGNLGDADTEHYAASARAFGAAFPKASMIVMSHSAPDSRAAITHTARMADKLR
compound,measurement,setting,value
"CN(C1CNC1)S(=O)(=O)c1ccc(-c2cccc3sc(N)nc23)c(-c2nnn[nH]2)c1S(N)(=O)=O.O=C(O)C(F)(F)F [Example 105, 3-(4-(2-aminobenzo[d]thiazol-4-yl)-N-methyl-2-sulfamoyl-3-(1H-tetrazol-5-yl)phenylsulfonamido)azetidin-1-ium 2,2,2-trifluoroacetate]",Efflux ratio,[1]; [7],1.00
same,Klebsiella pneumoniae expressing VIM-1 (IHMA599644) MITC95,[2]; [8],6.25 µM
same,Serratia marcescens expressing IMP-1 (CL5741) MITC95,[3]; [8],1.563 µM
same,Escherichia coli expressing NDM-1 (CLB30016) MITC95,[4]; [8],1.563 µM
same,"P. aeruginosa expressing IMP-1, efflux − (MB9799) MITC95",[5],1.563 µM
same,"P. aeruginosa expressing IMP-1, efflux + (MB9798) MITC95",[6],1.563 µM
same,IC50,"VIM-1; VIM-1 IC50, fluorescence assay",1.14 nM
same,IC50,NDM-1; [9],0.206 nM
same,IC50,IMP-1; [10],1.18 nM
"Nc1nc2c(-c3ccc(S(=O)(=O)N[C@H]4CO[C@H]5[C@H]4OC[C@H]5O)c(S(N)(=O)=O)c3-c3nnn[nH]3)cccc2s1 [Example 50, 2-({[4-(2-amino-1,3-benzothiazol-4-yl)-2-sulfamoyl-3-(1H-tetrazol-5-yl)phenyl]sulfonyl}amino)-1,4:3,6-dianhydro-2-deoxy-D-allitol]",Efflux ratio,[1]; [7],2.00
same,Klebsiella pneumoniae expressing VIM-1 (IHMA599644) MITC95,[2]; [8],25 µM
same,Serratia marcescens expressing IMP-1 (CL5741) MITC95,[3]; [8],12.5 µM
same,Escherichia coli expressing NDM-1 (CLB30016) MITC95,[4]; [8],25 µM
same,"P. aeruginosa expressing IMP-1, efflux − (MB9799) MITC95",[5],6.25 µM
same,"P. aeruginosa expressing IMP-1, efflux + (MB9798) MITC95",[6],12.5 µM
same,IC50,"VIM-1; VIM-1 IC50, fluorescence assay",0.25 nM
same,IC50,NDM-1; [9],0.0408 nM
same,IC50,IMP-1; [10],0.263 nM
"C[C@H](N)c1nc2c(-c3ccc(S(=O)(=O)N[C@@H]4CCNC4)c(S(N)(=O)=O)c3-c3nn[nH]n3)cccc2[nH]1 [Example 272, 4-(2-((S)-1-aminoethyl)-1H-benzo[d]imidazol-4-yl)-N1-((R)-pyrrolidin-3-yl)-3-(2H-tetrazol-5-yl)benzene-1,2-disulfonamide]",Efflux ratio,[1]; [7],2.00
same,Klebsiella pneumoniae MITC95,[2]; 95% inhibition of growth,1.563 µM
same,Serratia marcescens MITC95,[3]; 95% inhibition of growth,1.563 µM
same,Escherichia coli MITC95,[4]; 95% inhibition of growth,3.125 µM
same,"P. aeruginosa expressing IMP-1, efflux − (MB9799) MITC95",[5],0.7813 µM
same,"P. aeruginosa expressing IMP-1, efflux + (MB9798) MITC95",[6],1.563 µM
same,IC50,VIM-1; [11],0.11 nM
same,IC50,NDM-1; [9],0.0667 nM
same,IC50,IMP-1; [10],1.36 nM
"NC[C@@H]1CCN(S(=O)(=O)c2ccc(-c3cccc4sc(N)nc34)c(-c3nnn[nH]3)c2S(N)(=O)=O)C1 [Example 70, 3-(2-amino-1,3-benzothiazol-4-yl)-6-{[(3S)-3-(aminomethyl)pyrrolidin-1-yl]sulfonyl}-2-(1H-tetrazol-5-yl)benzenesulfonamide]",Efflux ratio,[1]; [7],1.00
same,Klebsiella pneumoniae expressing VIM-1 (IHMA599644) MITC95,[2]; [8],12.5 µM
same,Serratia marcescens expressing IMP-1 (CL5741) MITC95,[3]; [8],3.125 µM
same,Escherichia coli expressing NDM-1 (CLB30016) MITC95,[4]; [8],6.25 µM
same,"P. aeruginosa expressing IMP-1, efflux − (MB9799) MITC95",[5],3.125 µM
same,"P. aeruginosa expressing IMP-1, efflux + (MB9798) MITC95",[6],3.125 µM
same,IC50,"VIM-1; VIM-1 IC50, fluorescence assay",2.79 nM
same,IC50,NDM-1; [9],1.95 nM
same,IC50,IMP-1; [10],2.31 nM
"NS(=O)(=O)c1c(S(=O)(=O)N[C@@H]2CCNC2)ccc(-c2cccc(-c3nc[nH]n3)c2)c1-c1nn[nH]n1 [Example 225, (R)-N4-(pyrrolidin-3-yl)-2-(2H-tetrazol-5-yl)-3′-(1H-1,2,4-triazol-3-yl)-[1,1′-biphenyl]-3,4-disulfonamide]",Efflux ratio,[1]; [7],1.00
same,Klebsiella pneumoniae expressing VIM-1 (IHMA599644) MITC95,[2]; [8],3.125 µM
same,Serratia marcescens expressing IMP-1 (CL5741) MITC95,[3]; [8],1.563 µM
same,Escherichia coli expressing NDM-1 (CLB30016) MITC95,[4]; [8],3.125 µM
same,"P. aeruginosa expressing IMP-1, efflux − (MB9799) MITC95",[5],1.563 µM
same,"P. aeruginosa expressing IMP-1, efflux + (MB9798) MITC95",[6],1.563 µM
same,IC50,VIM-1; [11],0.0561 nM
same,IC50,NDM-1; [9],0.0256 nM
same,IC50,IMP-1; [10],0.11 nM
"Nc1nc2c(-c3ccc(S(=O)(=O)N[C@H]4CCNC4)c(S(N)(=O)=O)c3-c3nnn[nH]3)cccc2s1 [Example 60, 4-(2-amino-1,3-benzothiazol-4-yl)-N1-[(3S)-pyrrolidin-3-yl]-3-(1H-tetrazol-5-yl)benzene-1,2-disulfonamide]",Efflux ratio,[1]; [7],0.50
same,Klebsiella pneumoniae expressing VIM-1 (IHMA599644) MITC95,[2]; [8],3.125 µM
same,Serratia marcescens expressing IMP-1 (CL5741) MITC95,[3]; [8],1.563 µM
same,Escherichia coli expressing NDM-1 (CLB30016) MITC95,[4]; [8],3.125 µM
same,"P. aeruginosa expressing IMP-1, efflux − (MB9799) MITC95",[5],1.563 µM
same,"P. aeruginosa expressing IMP-1, efflux + (MB9798) MITC95",[6],0.7813 µM
same,IC50,VIM-1; [11],0.236 nM
same,IC50,NDM-1; [9],0.0765 nM
same,IC50,IMP-1; [10],0.679 nM
"C[C@H](CCN)NS(=O)(=O)c1ccc(-c2ccc(N)nc2)c(-c2nn[nH]n2)c1S(N)(=O)=O [Example 498, (R)-N1-(4-aminobutan-2-yl)-4-(6-aminopyridin-3-yl)-3-(1H-tetrazol-5-yl)benzene-1,2-disulfonamide]",Efflux ratio,"[1]; fold difference between efflux+ (MB9798) and efflux− (MB9799) strains, imipenem at 2 μg/mL",1.00
same,Klebsiella pneumoniae MITC95,[2]; [8],3.125 µM
same,Serratia marcescens MITC95,[3]; [8],1.563 µM
same,Escherichia coli MITC95,[4]; [8],1.563 µM
same,Concentration of metallo-β-lactamase inhibitor which restores susceptibility of efflux − (MB9799) strain to imipenem,"[5]; efflux− MB9799, imipenem at 2 μg/mL, in the presence of a class A",0.7813
same,Concentration of metallo-β-lactamase inhibitor which restores susceptibility of efflux + (MB9798) strain to imipenem,"[6]; efflux+ MB9798, imipenem at 2 μg/mL, in the presence of a class A",0.7813
same,IC50,VIM-1; [11],0.0512 nM
same,IC50,NDM-1; [9],0.0146 nM
same,IC50,IMP-1; [10],0.0763 nM
"Nc1nc2c(-c3ccc(S(=O)(=O)N4CCC[C@@H](N)C4)c(S(N)(=O)=O)c3-c3nnn[nH]3)cccc2s1 [Example 68, 3-(2-amino-1,3-benzothiazol-4-yl)-6-{[(3R)-3-aminopiperidin-1-yl]sulfonyl}-2-(1H-tetrazol-5-yl)benzenesulfonamide]",Efflux ratio,[1]; [7],2.00
same,Klebsiella pneumoniae expressing VIM-1 (IHMA599644) MITC95,[2]; [8],3.125 µM
same,Serratia marcescens expressing IMP-1 (CL5741) MITC95,[3]; [8],1.563 µM
same,Escherichia coli expressing NDM-1 (CLB30016) MITC95,[4]; [8],3.125 µM
same,"P. aeruginosa expressing IMP-1, efflux − (MB9799) MITC95",[5],1.563 µM
same,"P. aeruginosa expressing IMP-1, efflux + (MB9798) MITC95",[6],3.125 µM
same,IC50,VIM-1; [11],3.7 nM
same,IC50,"NDM-1; NDM-1 IC50, fluorescence assay",1.01 nM
same,IC50,"IMP-1; IMP-1 IC50, fluorescence assay",1.97 nM
"Nc1nc2c(-c3ccc(S(=O)(=O)N[C@H]4CCCNC4)c(S(N)(=O)=O)c3-c3nnn[nH]3)cccc2[nH]1 [Example 179, (S)-4-(2-amino-1H-benzo[d]imidazol-4-yl)-N^1-(piperidin-3-yl)-3-(1H-tetrazol-5-yl)benzene-1,2-disulfonamide]",Efflux ratio,[1]; [7],2.00
same,Klebsiella pneumoniae expressing VIM-1 (IHMA599644) MITC95,[2]; [8],3.125 µM
same,Serratia marcescens expressing IMP-1 (CL5741) MITC95,[3]; [8],3.125 µM
same,Escherichia coli expressing NDM-1 (CLB30016) MITC95,[4]; [8],1.563 µM
same,"P. aeruginosa expressing IMP-1, efflux − (MB9799) MITC95",[5],1.563 µM
same,"P. aeruginosa expressing IMP-1, efflux + (MB9798) MITC95",[6],3.125 µM
same,IC50,VIM-1; [11],0.904 nM
same,IC50,NDM-1; [9],0.219 nM
same,IC50,IMP-1; [10],3 nM
